{
  "source": "paper PMC8978187",
  "about": "“Feasibility, Biodistribution, and Preliminary Dosimetry in Peptide-Targeted Radionuclide Therapy of Diverse Adenocarcinomas Using ^177Lu-FAP-2286: First-in-Humans Results” (Journal of Nuclear Medicine, 2022)",
  "origin": "cited, not measured here",
  "key": {"tumor": {"test_system": "tumor", "conditions": "compared with ^177Lu-FAP-2286", "text": "In our patient cohort, FAP expression was confirmed in these malignancies on PET/CT using ^68Ga-FAP-2286 or ^68Ga-FAPI-04."}, "[1]": {"conditions": "patients", "text": "These findings were further corroborated by dosimetric studies."}},
  "note": "Where two headings read alike, the source gives them in different places.",
  "data": [
    {"smiles": "N#C[C@@H]1CCCN1C(=O)CNC(=O)c1ccnc2ccc(OCCCN3CCN(C(=O)CN4CCN(CC(=O)O)CCN(CC(=O)O)CCN(CC(=O)O)CC4)CC3)cc12", "note": "[FAPI-02]", "values": [
      {"measurement": "tumor washout and tumor retention time", "setting": "tumor", "result": "earlier tumor washout and a correspondingly shorter tumor retention time"}
    ]},
    {"smiles": "N#C[C@@H]1CC(F)(F)CN1C(=O)CNC(=O)c1ccnc2ccc(OCCCN3CCN(C(=O)CN4CCN(CC(=O)O)CCN(CC(=O)O)CCN(CC(=O)O)CC4)CC3)cc12", "note": "[FAPI-04]", "values": [
      {"measurement": "tumor washout and tumor retention time", "setting": "tumor", "result": "earlier tumor washout and a correspondingly shorter tumor retention time"}
    ]},
    {"smiles": "O=C([O-])CN1CCN(CC(=O)[O-])CCN(CC(=O)NCC2CCC(C(=O)N[C@@H](Cc3ccc4ccccc4c3)C(=O)NCCCC[C@H](NC(=O)N[C@@H](CCC(=O)O)C(=O)O)C(=O)O)CC2)CCN(CC(=O)[O-])CC1.[177Lu+3]", "note": "(some centres unmarked) [^177Lu-PSMA-617]", "values": [
      {"measurement": "bone marrow absorbed dose", "setting": "[1]", "result": 0.03, "unit": "Gy/GBq"},
      {"measurement": "effective half-life in the kidneys", "setting": "[1]", "result": 42, "unit": "h"},
      {"measurement": "effective half-life in the whole body", "setting": "[1]", "result": 40, "unit": "h"},
      {"measurement": "kidney absorbed dose", "setting": "[1]", "result": 0.99, "unit": "Gy/GBq"},
      {"measurement": "whole-body absorbed dose", "setting": "[1]", "result": 0.04, "unit": "Gy/GBq"},
      {"measurement": "kidney absorbed dose, range", "setting": "[1]; range", "result": "0.45–1.6 Gy/GBq"},
      {"measurement": "absorbed dose in bone metastases", "setting": "[1]; reported by Kulkarni et al.", "result": 2.9, "unit": "Gy/GBq"},
      {"measurement": "absorbed dose in bone metastases", "setting": "[1]; reported by Violet et al.", "result": 5.3, "unit": "Gy/GBq"},
      {"measurement": "absorbed dose in bone metastases, range", "setting": "[1]; reported by Violet et al., range", "result": "0.4–10.7 Gy/GBq"}
    ]}
  ]
}
